Here are results for seven compounds from BindingDB's records for doi:10.1007/s00210-003-0860-y (UniversitÄT WÜRzburg, 2004).

In general, Ki refers to the dissociation constant of the complex between target and ligand, obtained from inhibition or displacement. Read a low Ki as a stronger hold on the target.

The target in experiment [1] is Beta-3 adrenergic receptor (Homo sapiens, UniProt P13945).
Experiment [2] deals with Beta-2 adrenergic receptor (Homo sapiens, UniProt P07550).

Molecules are shown by their SMILES. Structures can show the parent of a compound that is named as a salt.

Chain of Beta-2 adrenergic receptor (P07550 whole entry): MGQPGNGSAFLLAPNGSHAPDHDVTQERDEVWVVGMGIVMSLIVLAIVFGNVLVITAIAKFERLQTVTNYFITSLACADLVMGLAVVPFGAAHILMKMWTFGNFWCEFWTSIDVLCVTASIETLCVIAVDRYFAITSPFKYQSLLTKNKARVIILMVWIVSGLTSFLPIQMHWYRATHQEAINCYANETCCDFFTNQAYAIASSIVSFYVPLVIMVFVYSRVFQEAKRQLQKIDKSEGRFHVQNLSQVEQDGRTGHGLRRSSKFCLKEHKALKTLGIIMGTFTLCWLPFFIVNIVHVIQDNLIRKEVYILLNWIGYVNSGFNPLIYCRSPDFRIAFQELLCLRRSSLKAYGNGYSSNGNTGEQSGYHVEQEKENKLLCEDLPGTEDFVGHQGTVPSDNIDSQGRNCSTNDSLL
Chain of Beta-3 adrenergic receptor (P13945 whole entry): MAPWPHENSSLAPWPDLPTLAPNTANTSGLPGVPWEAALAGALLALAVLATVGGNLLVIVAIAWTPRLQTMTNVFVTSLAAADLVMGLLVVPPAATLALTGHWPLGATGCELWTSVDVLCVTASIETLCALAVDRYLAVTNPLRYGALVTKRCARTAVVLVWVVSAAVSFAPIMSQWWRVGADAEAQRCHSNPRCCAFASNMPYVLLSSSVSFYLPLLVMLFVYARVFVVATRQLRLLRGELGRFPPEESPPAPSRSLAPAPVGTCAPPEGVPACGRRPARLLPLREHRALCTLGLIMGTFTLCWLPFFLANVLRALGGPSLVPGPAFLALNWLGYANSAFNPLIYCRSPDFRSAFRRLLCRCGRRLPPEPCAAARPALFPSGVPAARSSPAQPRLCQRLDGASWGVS

The compound `CC(C)(C)NCC(O)c1cc(O)cc(O)c1` (racemic) [Terbutaline,(+/-)] yielded a Ki in experiment [1] of more than 10 µM.
In experiment [1], `CC(C)(C)NCC(O)COc1cccc2[nH]c(=O)[nH]c12` (centres undefined) [4-[3-(tert-butylamino)-2-hydroxypropoxy]-2,3-dihydro-1H-1,3-benzodiazol-2-one hydrochloride] registered a Ki of 0.0771 µM.
With `CC(Cc1ccc(OCC(=O)O)cc1)NCC(O)c1cccc(Cl)c1` (centres undefined) [CAS_2437], the affinity in experiment [2], expressed as Ki, was 9170 nM.
Regarding `CCc1ccccc1OC[C@@H](O)CN[C@H]1CCCc2ccccc21` [CAS_174689-39-5], the results for the Ki in experiment [2] and in experiment [1] were 61.9 nM and 0.122 µM, respectively.
The compound `CNCC(O)c1ccc(O)c(O)c1` (centres undefined) [EPINEPHRINE] gave an inhibition constant Ki in experiment [1] of more than 10 µM.
On to `CC(C)(C)NCC(O)c1cc(Br)no1` (centres undefined) [NSC_71149], for which the Ki was 1290 nM in experiment [2] and 3.99 µM in experiment [1].
In experiment [1], `OCc1cc(C(O)CNCCCCCCOCCCCc2ccccc2)ccc1O` (centres undefined) [salmeterol xinafoate] had a Ki of 7.18 µM.
